Laboratory results published in patent publication US20250280826A1, “PLANT GROWTH PROMOTER” (KAO CORPORATION, priority 2022, published 2025).

Tests used:
[1] = tested on: azuki bean; test: Example 6: initial growth index in azuki bean (above-/below-ground part dry weight); assay type: in vivo; conditions: ascorbic acid 1 500 mass ppm, tap water vs deionized water
Description: Medium-term fertilizer effect type culture soil (Takii hydrous cell medium-term fertilizer effect type, Takii & Co., Ltd.) and vermiculite grains (Akagi-Engei Co., Ltd.) were mixed at a volume ratio of 1:1, and the soil was placed in a polypot (diameter: 10.5 cm, height: 9 cm). The azuki bean seeds used were “Tamba Dainagon Azuki Beans” (purchased from Takii & Co., Ltd.). After tap water was supplied in an amount of 250 mL per pot, 2 seeds per pot were each sown at a depth of from about 1 to 2 cm from the soil surface. The number of repeats in each test plot was 6 (n=6). […]
Spraying solutions were prepared, and 6.7 mL of each per plant was sprayed only once using a mister on day 21 after sowing. […] The evaluated test plots 1 to 4 are as follows.
On day 28 after sowing, the plant body was dried at 90° C. for 24 hours, and the above-ground part dry weight and below-ground part dry weight of the plant body were then measured. • 1 plot: control (no application) • 2 plot: foliar spray of 1 500 mass ppm ascorbic acid (dissolved in tap water) • 3 plot: foliar spray of 1 500 mass ppm ascorbic acid (dissolved in deionized water) • 4 plot: foliar spray of 1 500 mass ppm ascorbic acid+1 mass ppm BHT+50 mass ppm isobutyl alcohol+350 mass ppm sorbitan monolaurate (dissolved in tap water)

[2] = tested on: soybean (Glycine max); test: Test Example 1: soybean yield (dry grain mass) in field after one foliar spray; assay type: in vivo
Description: An ascorbic acid aqueous solution prepared by dissolving ascorbic acid in water and an ascorbic acid aqueous solution prepared by dissolving ascorbic acid in deionized water were prepared, and the influence of the ascorbic acid dissolved in water on the application effect for soybean (Glycine max) was examined.
The influence of one foliar spray of 500 mass ppm ascorbic acid on the soybean yield was evaluated. The evaluated test plots 1 to 3 are as shown below. • 1 plot: control (no application) • 2 plot: foliar spray of 500 mass ppm ascorbic acid (dissolved in tap water) • 3 plot: foliar spray of 500 mass ppm ascorbic acid (dissolved in deionized water)
The cultivation of soybean was carried out in a field in Tochigi Prefecture, and the soybean cultivar used was “Sato no Hohoemi.” Of the field, a ridge with a width of 2 m excluding the perimeter was used as one plot, and foliar spray treatment was carried out. […]
The ascorbic acid used was “Food Additive Grade Vitamin C (L-ascorbic acid) Fine Mesh TypeSSS” manufactured by Fuso Chemical Co. Ltd. An aqueous solution of 500 mass ppm ascorbic acid was dissolved in tap water or deionized water for production. […] The dry grain mass was measured as yield data.
After calculating the average grain weight of each plant in one plot, the mean and the standard deviation of three plots were calculated (FIG. 1).

[3] = tested on: soybean; test: Example 2: soybean nodule weight one week after foliar spray; assay type: in vivo
Description: Medium-term fertilizer effect type culture soil (Takii hydrous cell medium-term fertilizer effect type, Takii & Co., Ltd.) and vermiculite grains (Akagi-Engei Co., Ltd.) were mixed at a volume ratio of 1:1, and the soil was placed in a polypot (diameter: 10.5 cm, height: 9 cm). The soybean seeds used were “Enrei” (purchased from Nikko Seed Co. Ltd.). After tap water was supplied in an amount of 250 mL per pot, 2 seeds per pot were each sown at a depth of from about 1 to 2 cm from the soil surface. The number of repeats in each test plot was 6 (n=6).
1.5% agar (Wako Pure Chemical Industries, Ltd.) was added to Yeast-Mannitol (YM) medium (0.5 g of K2HPO4, 0.2 g of MgSO4-7H2O, 0.1 g of NaCl, 0.4 g of yeast extract, 10 g of mannitol, and 1 L of distilled water (pH: 6.8)) to prepare a solid medium, and a soybean Rhizobium (Bradyrhizobium japonicum) NBRC14783T strain was grown on the solid medium. A platinum loop of the grown Rhizobium was taken and inoculated in 50 mL of YM liquid medium in a Sakaguchi flask with a volume of 500 mL, and shake-cultured at 30° C. for about 36 hours. A Rhizobium culture solution whose value of turbidity OD600 of bacterial cells was about 0.3 was prepared. […]
The mean and the standard deviation were calculated from the data of four repeats, excluding the highest and the lowest values from the six repeats in each test plot.

[4] = tested on: legume crops; conditions: total of three foliar sprays, ascorbic acid solution dissolved in distilled water, vegetative or reproductive growth stage; cited from earlier work

## O=C1O[C@H]([C@@H](O)CO)C(O)=C1O [ascorbic acid, (R)-3,4-dihydroxy-5-((S)-1,2-dihydroxyethyl)furan-2(5H)-one]
[1]
  effects on the initial growth index: varied in accordance with the water quality
[2]; 500 mass ppm dissolved in tap water
  effects of ascorbic acid on seed weight: effects of ascorbic acid disappear
[2]; 500 mass ppm, 20 mL per plant, day 60 after sowing, tap water vs deionized water
  effects of tap water and deionized water on the seed weight: different effects
[3]; ascorbic acid 1,500 ppm dissolved in deionized water, soybean early growth stage
  nodule weight: increased
[3]; ascorbic acid 1,500 ppm dissolved in tap water
  application effect of ascorbic acid (nodule weight): tended to decrease
[4]
  increase the yield: up to 30%
